{
  "source": "paper PMC9371265",
  "about": "(PLoS Pathogens, 2022)",
  "molecular_target": "T1, PrpN (Bacillus anthracis, UniProt A0A6L7HCQ6)",
  "T1 construct": "gene GBAA_0570",
  "T1 sequence (A0A6L7HCQ6 1-234)": "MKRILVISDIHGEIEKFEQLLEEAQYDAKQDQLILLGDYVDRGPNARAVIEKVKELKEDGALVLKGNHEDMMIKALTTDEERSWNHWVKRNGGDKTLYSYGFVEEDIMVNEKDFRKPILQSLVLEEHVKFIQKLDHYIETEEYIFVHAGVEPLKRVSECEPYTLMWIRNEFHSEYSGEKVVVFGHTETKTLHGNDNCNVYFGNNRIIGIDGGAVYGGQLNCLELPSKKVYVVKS",
  "data": [
    {"smiles": "O=[N+]([O-])c1ccc(OP(=O)(O)O)cc1", "note": "[p-nitrophenyl phosphate]", "values": [
      {"measurement": "pNPP hydrolysis, absorbance at 405 nm", "value": "determined spectrophotometrically using para-nitrophenyl phosphate-pNPP (Sigma-Aldrich) as substrate"}
    ]}
  ]
}
